Experimental findings from ChEMBL document CHEMBL5465560, “Selectivity Literature for EUbOPEN Chemogenomic Library” (2024) are described below.

Test [1] deals with T1, Mitogen-activated protein kinase kinase kinase 15 (Homo sapiens) (UniProt Q6ZN16).
T1 sequence (whole entry): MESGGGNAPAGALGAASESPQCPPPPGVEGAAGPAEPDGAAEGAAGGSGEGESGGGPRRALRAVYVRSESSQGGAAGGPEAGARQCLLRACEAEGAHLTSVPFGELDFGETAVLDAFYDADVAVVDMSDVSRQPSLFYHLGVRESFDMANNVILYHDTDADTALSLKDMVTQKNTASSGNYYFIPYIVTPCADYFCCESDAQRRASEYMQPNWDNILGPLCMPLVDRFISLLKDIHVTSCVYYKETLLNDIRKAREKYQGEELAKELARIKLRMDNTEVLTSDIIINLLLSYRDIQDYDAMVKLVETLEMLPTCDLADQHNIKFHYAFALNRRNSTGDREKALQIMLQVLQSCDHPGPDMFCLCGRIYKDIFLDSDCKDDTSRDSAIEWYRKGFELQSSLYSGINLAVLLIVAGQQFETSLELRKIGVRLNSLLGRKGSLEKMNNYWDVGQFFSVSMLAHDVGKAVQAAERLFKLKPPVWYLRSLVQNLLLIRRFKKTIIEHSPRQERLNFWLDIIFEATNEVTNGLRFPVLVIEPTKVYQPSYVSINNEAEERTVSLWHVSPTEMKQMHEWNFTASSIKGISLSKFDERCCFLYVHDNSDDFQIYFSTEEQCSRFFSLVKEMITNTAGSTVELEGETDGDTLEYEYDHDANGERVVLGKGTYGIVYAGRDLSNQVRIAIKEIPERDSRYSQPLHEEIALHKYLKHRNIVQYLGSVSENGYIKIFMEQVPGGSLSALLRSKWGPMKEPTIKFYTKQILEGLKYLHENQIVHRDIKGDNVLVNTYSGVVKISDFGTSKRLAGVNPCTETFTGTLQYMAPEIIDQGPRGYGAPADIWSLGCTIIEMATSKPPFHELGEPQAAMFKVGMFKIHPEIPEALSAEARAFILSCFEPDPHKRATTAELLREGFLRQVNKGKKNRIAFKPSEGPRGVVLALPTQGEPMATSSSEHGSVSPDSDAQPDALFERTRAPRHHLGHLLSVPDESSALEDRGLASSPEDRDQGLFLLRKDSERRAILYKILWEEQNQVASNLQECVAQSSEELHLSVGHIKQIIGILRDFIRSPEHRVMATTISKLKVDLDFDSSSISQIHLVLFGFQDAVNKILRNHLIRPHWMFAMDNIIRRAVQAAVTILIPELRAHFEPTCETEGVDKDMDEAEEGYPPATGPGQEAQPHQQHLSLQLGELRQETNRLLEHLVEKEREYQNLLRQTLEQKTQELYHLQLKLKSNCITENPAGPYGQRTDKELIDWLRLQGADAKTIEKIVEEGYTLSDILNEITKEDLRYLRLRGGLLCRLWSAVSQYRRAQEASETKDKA
Briefly: Selectivity interaction (KinomeScan (DiscoverX)) EUB0000595a MAP3K15. As to conditions: at 10 µM.

Test [2] has as its target Sphingosine kinase 1 (Homo sapiens) (UniProt Q9NYA1). Briefly: Selectivity interaction (Kinase panel (Invitrogen)) EUB0000639a SPHK1. Particulars: at 200 nM.
The target of test [3] is T2, Serine/threonine-protein kinase haspin (Homo sapiens) (UniProt Q8TF76).
T2 sequence (whole entry): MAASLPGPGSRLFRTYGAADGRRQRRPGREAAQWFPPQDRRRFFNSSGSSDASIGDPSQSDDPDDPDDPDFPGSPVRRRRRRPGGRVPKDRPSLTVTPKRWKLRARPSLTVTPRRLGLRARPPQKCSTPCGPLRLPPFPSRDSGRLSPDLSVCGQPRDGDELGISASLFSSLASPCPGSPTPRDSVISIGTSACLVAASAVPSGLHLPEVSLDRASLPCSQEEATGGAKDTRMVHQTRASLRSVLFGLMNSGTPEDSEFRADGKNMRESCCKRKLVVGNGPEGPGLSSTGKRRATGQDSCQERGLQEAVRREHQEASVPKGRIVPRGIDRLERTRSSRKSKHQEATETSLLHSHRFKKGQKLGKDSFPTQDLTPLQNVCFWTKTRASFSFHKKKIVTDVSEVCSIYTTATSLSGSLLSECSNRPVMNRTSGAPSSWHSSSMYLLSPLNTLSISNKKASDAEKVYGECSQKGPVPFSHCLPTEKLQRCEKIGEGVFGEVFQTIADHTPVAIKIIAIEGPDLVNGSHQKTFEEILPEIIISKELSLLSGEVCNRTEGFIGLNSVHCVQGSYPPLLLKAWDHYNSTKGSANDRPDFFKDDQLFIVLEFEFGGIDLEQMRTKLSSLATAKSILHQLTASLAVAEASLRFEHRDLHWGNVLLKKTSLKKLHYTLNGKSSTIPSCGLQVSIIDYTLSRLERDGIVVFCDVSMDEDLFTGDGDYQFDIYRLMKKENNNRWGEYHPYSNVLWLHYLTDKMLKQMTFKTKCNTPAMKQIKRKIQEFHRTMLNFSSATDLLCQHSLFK
As to the kind of experiment: Selectivity interaction (Kinase panel (DSF assay)) EUB0001559a GSG2.

In test [4] the target is Maternal embryonic leucine zipper kinase (Homo sapiens) (UniProt Q14680). As to the kind of experiment: Selectivity interaction (Kinase panel (DSF assay)) EUB0001559a MELK.
The target of test [5] is T3, Cyclin-dependent kinase 11A (Homo sapiens) (UniProt Q9UQ88).
T3 sequence (whole entry): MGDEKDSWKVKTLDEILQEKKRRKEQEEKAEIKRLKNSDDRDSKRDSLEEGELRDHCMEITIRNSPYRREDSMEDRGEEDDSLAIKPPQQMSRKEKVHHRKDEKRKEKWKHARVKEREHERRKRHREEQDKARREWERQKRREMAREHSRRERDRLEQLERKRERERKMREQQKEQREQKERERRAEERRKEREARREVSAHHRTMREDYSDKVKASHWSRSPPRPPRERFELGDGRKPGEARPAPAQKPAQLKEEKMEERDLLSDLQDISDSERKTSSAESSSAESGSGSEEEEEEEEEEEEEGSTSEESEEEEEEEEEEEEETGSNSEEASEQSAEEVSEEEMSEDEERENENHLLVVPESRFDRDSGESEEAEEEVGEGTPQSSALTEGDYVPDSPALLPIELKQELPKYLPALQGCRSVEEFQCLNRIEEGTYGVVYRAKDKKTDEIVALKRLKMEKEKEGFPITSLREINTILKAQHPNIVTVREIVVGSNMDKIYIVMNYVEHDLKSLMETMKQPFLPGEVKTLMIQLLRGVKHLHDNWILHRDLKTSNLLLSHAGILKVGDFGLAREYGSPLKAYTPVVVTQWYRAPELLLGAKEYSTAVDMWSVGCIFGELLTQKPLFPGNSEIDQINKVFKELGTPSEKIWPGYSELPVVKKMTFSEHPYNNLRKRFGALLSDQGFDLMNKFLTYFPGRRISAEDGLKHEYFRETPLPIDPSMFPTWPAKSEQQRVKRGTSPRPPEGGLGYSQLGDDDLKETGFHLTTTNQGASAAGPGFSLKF
Briefly: Selectivity interaction (KinomeScan (DiscoverX)) EUB0000045b CDK11A. Particulars: at 10 µM.

Sphingosine kinase 1 (Homo sapiens), sequence (Q9NYA1 whole entry): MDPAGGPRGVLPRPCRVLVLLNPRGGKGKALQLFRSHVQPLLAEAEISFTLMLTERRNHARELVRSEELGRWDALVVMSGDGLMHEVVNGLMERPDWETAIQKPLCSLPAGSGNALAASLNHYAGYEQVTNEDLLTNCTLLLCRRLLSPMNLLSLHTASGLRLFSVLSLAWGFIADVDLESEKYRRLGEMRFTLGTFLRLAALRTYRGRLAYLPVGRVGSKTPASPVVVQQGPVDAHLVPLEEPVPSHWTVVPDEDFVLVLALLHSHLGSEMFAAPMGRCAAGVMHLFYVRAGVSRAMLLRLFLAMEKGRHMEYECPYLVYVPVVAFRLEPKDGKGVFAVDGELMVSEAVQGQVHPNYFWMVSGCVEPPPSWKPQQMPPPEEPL
Maternal embryonic leucine zipper kinase (Homo sapiens), sequence (Q14680 whole entry, looked up): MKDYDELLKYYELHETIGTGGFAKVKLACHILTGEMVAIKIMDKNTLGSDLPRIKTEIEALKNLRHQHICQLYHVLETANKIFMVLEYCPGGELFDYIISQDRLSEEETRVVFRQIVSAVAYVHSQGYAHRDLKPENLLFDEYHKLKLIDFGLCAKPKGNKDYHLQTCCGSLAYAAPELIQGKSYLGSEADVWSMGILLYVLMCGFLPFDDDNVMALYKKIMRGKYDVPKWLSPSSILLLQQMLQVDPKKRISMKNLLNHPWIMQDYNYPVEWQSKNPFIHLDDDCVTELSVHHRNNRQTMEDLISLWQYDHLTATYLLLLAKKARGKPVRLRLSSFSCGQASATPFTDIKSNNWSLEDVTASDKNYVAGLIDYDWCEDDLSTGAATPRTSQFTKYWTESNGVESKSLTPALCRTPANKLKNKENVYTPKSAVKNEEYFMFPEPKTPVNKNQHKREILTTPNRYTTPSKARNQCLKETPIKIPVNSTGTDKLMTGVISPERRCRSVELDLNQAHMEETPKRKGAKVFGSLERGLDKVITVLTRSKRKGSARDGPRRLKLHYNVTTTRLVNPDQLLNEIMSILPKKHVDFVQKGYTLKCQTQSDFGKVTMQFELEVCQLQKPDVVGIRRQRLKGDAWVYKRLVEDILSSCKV

Compound `COCC(=O)NC/C=C/c1ccc2ncnc(Nc3ccc(Oc4ccc(C)nc4)c(C)c3)c2c1` [CP-724714] gave a % of control in test [1] of 100%.
In the case of `CC[C@@H]1[C@H](F)C(=O)N[C@@H]1COc1nccc2cc(C(N)=O)c(OC)cc12` [ZIMLOVISERTIB], the % of inhibition in test [2] stood at 2.77%.
On to `CN(C(=O)c1cnn2cccnc12)c1cc2c(cc1N1CCOCC1)C(=O)N(C[C@@H](F)C(C)(C)O)C2`, for which the dTM in test [3] is 1.8 K; in test [4], -0.3 K.
`C=CC(=O)Nc1cc(-n2c(=O)ccc3cnc4ccc(-c5ccc(NS(C)(=O)=O)cc5)cc4c32)ccc1C` gave a % of control in test [5] of 100%.
